Experimental data from patent US8895509B2, “MIR-200 family induces mesenchymal-to-epithelial transition (MET) in ovarian cancer cells” (Georgia Tech Research Corporation, priority 2010, dated 2014).

Tested on: HEY cells
Experiment: sensitivity of transfected HEY cells to cisplatin
Assay type: cell-based, human
Conditions: cisplatin 0.1-50 μM
Description: Cultures of the mesenchymal HEY cells were transfected with a negative control (NC) miRNA or miR-429 using Lipofectamine 2000 (Invitrogen) and treated with increasing concentrations of cisplatin. (0.1, 0.5, 1, 3, 5, 7, 10, 15, 20, 30, 50 μM).

Work on `N.N.[Cl][Pt][Cl]` [cisplatin] yielded an IC50 (HEY cells transfected with miR-429) of 4.6 µM and an IC50 (HEY cells transfected with negative control (NC) miRNA) of 8.7 µM.
